Patent US20260337125A1, “RADIOLABELED TYROSINE DERIVATIVE AND APPLICATION THEREOF” (Osaka University, priority 2022, published 2026)
Read-outs that look alike come from different tables or passages of the source.

Tests used:
[1] = tested on: human pancreatic cancer cell line (PANC1); assay type: in vivo, human (PANC1) in Balb/c-nu/nu mice; conditions: 1 MBq/0.2 mL per mouse, tail vein
From the text: The experiment was terminated 21 days after administration.

A549 = assay: Therapeutic test on mice subcutaneously transplanted with A549; assay type: in vivo, human (A549) in Balb/c-nu/nu mice; conditions: A549 tumor weight 30 days after administration, 0.5 MBq/0.2 mL per mouse, tail vein
Experimental: Immunodeficient mice (Balb/c-nu/nu, 5-week-old, male) were habituated for 1 week and then subcutaneously transplanted with A549 or CDDP-resistant A549 (A549 CDDP-r) (1×10^7 cells/mouse). The mice were observed over time until engraftment of tumors was confirmed (50 to 100 mm^3), and when the tumors reached a predetermined size, ^211At-AAMT-OMe or ^211At-AAMT diluted with water for injection to 0.5 MBq/0.2 mL per mouse was administered via tail vein. Thirty days after administration, the mice were euthanized and tumor masses were isolated. After fat tissue and the like were trimmed off, the wet weights of the isolated tumor masses were measured to make a histogram.

[2] = TLC analysis of stability after purification; assay type: physicochemical; conditions: 24 hours after purification, in sodium ascorbate aqueous solution (final concentration 1%)
Experimental: The crude product solution (1 μL) was analyzed by thin-layer chromatography (TLC). The sample was spotted on a thin-layer plate (silica gel 60F254), and a mixed solvent of acetonitrile/water (2/1) was used as a developing solvent. The thin-layer plate was exposed to an imaging plate (BAS IP MS 2025E, GE Healthcare) for about 15 min, and then analyzed by a bioimage analyzer (Tyhoon™ FLA-7000, Cytiva). The results are shown in FIG. 2. ^211At-AAMT-OMe in the crude product solution was detected at Rf 0.80, and the radiochemical yield (RCY) was 81.3%.
(§1) The crude product solution was injected into an HLB column (Oasis, WAT-186005125) equilibrated with sterile distilled water (1 mL) to capture the target product in the cartridge, and sterile distilled water was passed through the cartridge to elute impurities. Next, 30% ethanol solution (500 μL) was passed through the cartridge to elute the target product into sodium ascorbate aqueous solution (500 μL, final concentration 1%), thus obtaining the purified product. The radiochemical yield and radiochemical purity of the purified product were 81% and 98%, respectively.
Before purification, immediately after production, 3 hours after production, and 24 hours after production, ^211At-AAMT-OMe was analyzed by thin-layer chromatography (TLC) in the same manner as described above.
as §1, with “product. This purified product was analyzed by thin-layer chromatography (TLC) in the same manner as described above.” for “product.”, “79.6%” for “81%”, “99.9%,” for “98%,”
24 hours after production, (R)-^211At-AAMT-OMe was analyzed by thin-layer chromatography (TLC) in the same manner as described above.
as §1, with “product. This purified product was analyzed by thin-layer chromatography (TLC) in the same manner as described above.” for “product.”, “75.9%” for “81%”, “99.27%,” for “98%,”
24 hours after production, ^211At-AAMT-OEt was analyzed by thin-layer chromatography (TLC) in the same manner as described above.
The crude product solution was injected into an HLB column (Oasis, WAT-186005125) equilibrated with sterile distilled water (1 mL) to capture the target product in the cartridge, and sterile distilled water was passed through the cartridge to elute impurities. […] This purified product was analyzed by thin-layer chromatography (TLC) in the same manner as described above. […]
24 hours after production, ^211At-AAMT-OPr was analyzed by thin-layer chromatography (TLC) in the same manner as described above. […]

[3] = tested on: human pancreatic cancer cell line (PANC1); assay: Therapeutic test on PANC1 subcutaneously transplanted mice (28 days); assay type: in vivo, human (PANC1) in Balb/c-nu/nu mice; conditions: 1 MBq/0.2 mL per mouse, tail vein
From the text: Twenty-eight days after administration, the mice were euthanized and subjected to autopsy, and tumor masses were isolated after organs were examined for abnormalities.

[4] = tested on: CDDP-resistant A549 (A549 CDDP-r); conditions: 48 hours, 37 °C, Cell counting kit-8
Experimental: Two days before experiment, A549 and CDDP-resistant A549 (A549 CDDP-r) were each seeded in a 96-well plate at a concentration of 1×10^5 cells/mL. ^211At-AAMT-OMe or ^211At-AAMT adjusted to a predetermined concentration was added to A549 cells and CDDP-resistant A549 cells, respectively, and the cells were cultured (CO2 5%, 37 °C). After the cultivation for 48 hours, Cell counting kit-8 (DOJINDO LABORATORIES) was added. After the addition, the cells were cultured at 37 °C for 1 hour, and cell viability was measured using absorbance at 450 nm as an indicator.

[5] = tested on: human pancreatic cancer cell line (PANC1); assay: Imaging of mice subcutaneously transplanted with human pancreatic cancer cell line PANC1; assay type: in vivo, human (PANC1) in Balb/c-nu/nu mice; conditions: 2 hours after administration, 0.5 MBq/0.2 mL per mouse, tail vein
From the text: Immunodeficient mice (Balb/c-nu/nu, 5-week-old, male) were habituated for 1 week and then subcutaneously transplanted with a human pancreatic cancer cell line (PANC1, 1×10^7 cells/mouse). After the transplantation, the mice were observed over time until tumor reached a size large enough for imaging (about 1000 mm^3). […] Two hours after administration, the mice were anesthetized by isoflurane inhalation, and planar images were taken using a γ camera (E-cam, Siemens).

COc1ccc(C[C@](C)(N)C(=O)O)cc1[At] [^211At-AAMT-OMe, (S)-3-astato(^211At)-O-methyl-α-methyltyrosine]
apparent toxicity ([1]; 21 days): apparent toxicity induced by their administration was not observed
lesions other than tumor at autopsy ([1]; 21 days): lesions other than tumor were not observed
mouse body weight ([1]; up to 21 days after administration): gently increased
anti-tumor effect (A549): comparable to that of ^211At-AAMT on A549
decomposition by TLC [2]: no decomposition
anti-tumor effect ([3]; 28 days after administration): slightly higher than that of ^211At-AAMT
tumor size ([3]; 28 days after administration): slightly smaller than that of the ^211At-AAMT administration group
mouse body weight ([3]; up to 28 days after administration): tends to slightly reduce, but the body weight reduction is significantly smaller than that of the control group, and is therefore not at a level regarded as a side effect
cytotoxicity [4]: more remarkable cytotoxicity against A549 CDDP-r
accumulation in tumor site (planar γ camera image) [5]: accumulated in the tumor sites, with a larger amount of ^211At-AAMT-OMe remaining in the tumor
